According to patent publication US20250177476A1, “ANG-(1-7) OLIGOPEPTIDE DERIVATIVES FOR USE IN MITIGATING AMYLOID-RELATED IMAGING ABNORMALITIES” (ProNeurogen, Inc., priority 2023, published 2025):
No end group written: not given here.

Experiments:
[1] = FDA-approved food additive; cited from earlier work
[2] = tested on: Tg-SwDI mouse model of AD and cerebral amyloid angiopathy (CAA); experiment: Cerebral microbleeds (ARIA-H) in Tg-SwDI mice given PNA5 with or without anti-Aβ antibody; type: in vivo; settings: Tg-SwDI mice aged 12-13 months; PNA5 30 μL, with PBS or anti-Aβ antibody 3 mg/kg; 2 months; tissue analysis (FIGS. 1A and 1B)
Description: The effect the Ang-(1-7) oligopeptide PNA5 had on cerebral microbleeds (ARIA-H) in a mouse model of AD and cerebral amyloid angiopathy (CAA) was studied.
Tg-SwDI mice aged 12-13 months were administered: (1) the PNA5 vehicle, without PNA5, and PBS, (2) vehicle and an anti-Aβ antibody, (3) PNA5 and PBS, or (4) PNA5 and an anti-Aβ antibody. The anti-AB antibody therapy (IgG) was administered in an amount of 3 mg/kg. The PNA5 was administered in an amount of 30 μL. For groups receiving the PNA5 alone (Group 3), the compounds were administered for […] which point they were administered a […] (NOR) test and Nest building test (FIG. 2) prior to euthanasia and collection of the tissue for analysis of the microbleeds (FIGS. 1A and 1B). For groups receiving the anti-AB antibody and PNA5 (Group 4), the compounds were administered for 2 months at which point they were administered a […] (NOR) test and Nest building test prior (FIG. 2) to euthanasia and collection of the tissue for analysis of the microbleeds (FIGS. 1A and 1B).

Molecule	safe human daily intake [1]	cerebral microbleeds (ARIA-H) [2]
CC(=O)OC[C@H]1O[C@H](O[C@]2(COC(C)=O)O[C@H](COC(=O)C(C)C)[C@@H](OC(=O)C(C)C)[C@@H]2OC(=O)C(C)C)[C@H](OC(=O)C(C)C)[C@@H](OC(=O)C(C)C)[C@@H]1OC(=O)C(C)C [SAIB, sucrose acetoisobutyrate]	up to 20 mg/kg	
PNA5: Ang-(1-7) derivative Asp Arg Val Tyr Ile His Ser* (glycosylated serine), carboxyl terminal end NH2 (DRVYIHS-NH2; not fully specified (residue 7); also: glycan on Ser7 not given here)		decreased
